Data as given in patent publication US20230212210A1 (priority 2020, published 2023).

What was measured:
DC-SIGN = target: T1, DC-SIGN (Homo sapiens, UniProt Q9NNX6); test: Binding of DC-SIGN to an HMO chip; conditions: Cy3-labelled DC-SIGN
T1 sequence (Q9NNX6 1-404): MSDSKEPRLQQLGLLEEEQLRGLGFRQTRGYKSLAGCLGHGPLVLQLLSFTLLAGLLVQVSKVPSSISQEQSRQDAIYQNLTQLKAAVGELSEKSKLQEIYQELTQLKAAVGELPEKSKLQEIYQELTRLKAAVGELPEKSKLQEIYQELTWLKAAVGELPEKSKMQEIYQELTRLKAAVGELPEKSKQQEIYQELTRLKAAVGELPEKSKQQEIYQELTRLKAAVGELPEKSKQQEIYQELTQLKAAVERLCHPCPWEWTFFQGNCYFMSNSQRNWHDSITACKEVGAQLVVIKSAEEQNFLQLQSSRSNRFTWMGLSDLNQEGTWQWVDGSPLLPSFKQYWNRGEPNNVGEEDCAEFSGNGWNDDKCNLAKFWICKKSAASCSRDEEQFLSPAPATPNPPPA

S1 subunit of SARS-CoV-2 = S1 subunit of SARS-CoV-2 (Severe acute respiratory syndrome coronavirus 2, UniProt P0DTC2)
[1] = target: S1 subunit (the S1 protein) of SARS-CoV-2 binding to lung epithelial cells (BEAS-2B cells) (Severe acute respiratory syndrome coronavirus 2, UniProt P0DTC2); type: cell-based; conditions: fixed cells pre-incubated with sugar chain 1 h, S1 subunit 1 μM
[2] = tested on: SARS-CoV-2 pseudovirus in Vero-E6 cells; type: cell-based
[3] = target: S1 subunit (the S1 protein) of SARS-CoV-2 binding to 16HBE cells (bronchial epithelial cells) (Severe acute respiratory syndrome coronavirus 2, UniProt P0DTC2); type: cell-based; conditions: 40 μM chondroitin sulfate, 20 μM fucoidan, 1 h pre-incubation; confocal microscopy
[4] = target: S1 subunit (the S1 protein) of SARS-CoV-2 binding to African green monkey kidney cells (Vero-E6 cells) (Severe acute respiratory syndrome coronavirus 2, UniProt P0DTC2); type: cell-based; conditions: fixed cells pre-incubated with sugar chain 1 h, S1 subunit 1 μM

CC(=O)N[C@H]1[C@H](O[C@H]2[C@@H](O)[C@@H](CO)O[C@@H](O[C@H]3[C@H](O)[C@@H](O)C(O)O[C@@H]3CO)[C@@H]2O)O[C@H](CO)[C@@H](O[C@@H]2O[C@@H](C)[C@@H](O)[C@@H](O)[C@@H]2O)[C@@H]1O[C@@H]1O[C@H](CO)[C@H](O)[C@H](O)[C@H]1O (stereo partly drawn) [HMO13, Galβ1-3(Fucα1-4)GlcNAcβ1-3Galβ1-4Glc]
Binding of DC-SIGN to an HMO chip, RFU (DC-SIGN): 1896.5 RFU

CC(=O)N[C@H]1[C@H](O[C@H]2[C@@H](O)[C@@H](CO)O[C@@H](O[C@H]3[C@H](O)[C@@H](O)C(O)O[C@@H]3CO)[C@@H]2O)O[C@H](CO)[C@@H](O[C@@H]2O[C@H](CO)[C@H](O)[C@H](O)[C@H]2O)[C@@H]1O[C@@H]1O[C@@H](C)[C@@H](O)[C@@H](O)[C@@H]1O (stereo partly drawn) [HMO14, Galβ1-4(Fucα1-3)GlcNAcβ1-3Galβ1-4Glc]
Binding of DC-SIGN to an HMO chip, RFU (DC-SIGN): 2125.34 RFU

CC(=O)N[C@@H]1[C@@H](O[C@@H]2O[C@H](CO)[C@H](O)[C@H](O)[C@H]2O)[C@@H](O)[C@@H](CO[C@@H]2O[C@H](CO)[C@@H](O)[C@H](O)[C@H]2NC(C)=O)O[C@@H]1O [O23, GlcNAcβ1-6(Galβ1-3)GalNAcα]
Binding of the S1 subunit of a virus to an O-sugar chain chip, RFU (S1 subunit of SARS-CoV-2): 69.84 RFU

CC(=O)N[C@@H]1[C@@H](O[C@@H]2O[C@H](CO)[C@@H](O[C@@H]3O[C@H](CO)[C@H](O)[C@H](O)[C@H]3O[C@@H]3O[C@@H](C)[C@@H](O)[C@@H](O)[C@@H]3O)[C@H](O[C@@H]3O[C@@H](C)[C@@H](O)[C@@H](O)[C@@H]3O)[C@H]2NC(C)=O)[C@@H](O)[C@@H](CO)O[C@@H]1O [O33, Fucα1-2Galβ1-4(Fucα1-3)GlcNAcβ1-3GalNAcα]
Binding of the S1 subunit of a virus to an O-sugar chain chip, RFU (S1 subunit of SARS-CoV-2): 6320.17 RFU

CC(=O)N[C@@H]1[C@@H](O[C@@H]2O[C@H](CO)[C@@H](O)[C@H](O)[C@H]2NC(C)=O)[C@@H](O)[C@@H](CO[C@@H]2O[C@H](CO)[C@@H](O)[C@H](O)[C@H]2NC(C)=O)O[C@@H]1O [O39, GlcNAcβ1-6(GlcNAcβ1-3)GalNAcα]
Binding of the S1 subunit of a virus to an O-sugar chain chip, RFU (S1 subunit of SARS-CoV-2): 136.5 RFU

Fucα1-2Gal 1-4GlcNAcβ1-3Galβ1-4Glc [HMO15]
Binding of DC-SIGN to an HMO chip, RFU (DC-SIGN): 1683.84 RFU

Fucα1-2Galβ1-4(Fucα1-3)GlcNAcβ1-3Gal 1-4Glc [HMO16]
Binding of DC-SIGN to an HMO chip, RFU (DC-SIGN): 2537.92 RFU

Fucα1-2Galβ1-4(Fucα1-3)GlcNAcβ1-3Galβ1-3GalNAcα [O20]
Binding of the S1 subunit of a virus to an O-sugar chain chip, RFU (S1 subunit of SARS-CoV-2): 304.5 RFU

Fucα1-2Galβ1-4(Fucα1-3)GlcNAcβ1-6(Fucα1-2Galβ1-4(Fucα1-3)GlcNAcβ1-3)Galβ1-4Glc [HMO46]
Binding of DC-SIGN to an HMO chip, RFU (DC-SIGN): 2425.92 RFU

Fucα1-2Galβ1-4Glc [HMO3]
Binding of DC-SIGN to an HMO chip, RFU (DC-SIGN): 2930.75 RFU

Fucα1-2Galβ1-4GlcNAcβ1-6(Fucα1-2Galβ1-4GlcNAcβ1-3)Galβ1-4Glc [HMO45]
Binding of DC-SIGN to an HMO chip, RFU (DC-SIGN): 838.42 RFU

Galα1-3(Fucα1-2)Galβ1-4GlcNAcβ1-3NAcα [O36]
Binding of the S1 subunit of a virus to an O-sugar chain chip, RFU (S1 subunit of SARS-CoV-2): 320.5 RFU

Galβ1-4(Fucα1-3)Glc [HMO2]
Binding of DC-SIGN to an HMO chip, RFU (DC-SIGN): 2329.09 RFU

Galβ1-4(Fucα1-3)GlcNAcβ1-6(Galβ1-4GlcNAcβ1-3)Gal 1-4Glc [HMO43]
Binding of DC-SIGN to an HMO chip, RFU (DC-SIGN): 1196.59 RFU

Galβ1-4(Fucα1-3)GlcNAcβ1-6(GlcNAcβ1-3)Gal 1-4Glc [HMO36]
Binding of DC-SIGN to an HMO chip, RFU (DC-SIGN): 1707.42 RFU

Galβ1-4GlcNAcβ1-6(Fucα1-2Gal 1-4GlcNAcβ1-3)Gal 1-4Glc [HMO40]
Binding of DC-SIGN to an HMO chip, RFU (DC-SIGN): 801.5 RFU

GlcNAcβ1-6[Fucα1-2Galβ1-4(Fucα1-3)GlcNAcβ1-3]Galβ1-4Glc [HMO33]
Binding of DC-SIGN to an HMO chip, RFU (DC-SIGN): 1913.59 RFU

GlcNAcβ1-6[Galβ1-4(Fucα1-3)GlcNAcβ1-3]Galβ1-4Glc [HMO31]
Binding of DC-SIGN to an HMO chip, RFU (DC-SIGN): 2175.59 RFU

Neu5Acα2-3Galβ1-4GlcNAcβ1-3GalNAcα [O29]
Binding of the S1 subunit of a virus to an O-sugar chain chip, RFU (S1 subunit of SARS-CoV-2): 2866.34 RFU

Neu5Acα2-6Galβ1-4GlcNAcβ1-3(Neu5Acα2-6Galβ1-3GlcNAcβ1-6)GalNAcα [O83]
Binding of the S1 subunit of a virus to an O-sugar chain chip, RFU (S1 subunit of SARS-CoV-2): 6012.67 RFU

fucoidan
blocking of the binding of the S1 subunit to BEAS-2B cells [1]: can block
inhibition activity to pseudovirus invasion and infection of the cells [2]: exhibit an inhibition activity
blocking of the binding of the S1 protein to bronchial epithelial cells (16HBE) [3]: successfully block
blocking of the binding of the S1 subunit to Vero-E6 cells [4]: can block

nadroparin calcium
blocking of the binding of the S1 subunit to BEAS-2B cells [1]: can block
inhibition activity to pseudovirus invasion and infection of the cells [2]: exhibit an inhibition activity
blocking of the binding of the S1 subunit to Vero-E6 cells [4]: can block

sodium chondroitin sulfate
blocking of the binding of the S1 protein to bronchial epithelial cells (16HBE) [3]: successfully block

sodium heparin sulfate
blocking of the binding of the S1 subunit to BEAS-2B cells [1]: can block
blocking of the binding of the S1 subunit to Vero-E6 cells [4]: can block
